In publication PMC9656702, “Unveiling a New Selenocyanate as a Multitarget Candidate with Anticancer, Antileishmanial and Antibacterial Potential” (Molecules, 2022):

How the values were obtained:
E. coli = assay: Growth curve study, E. coli; assay type: cell-based, Escherichia coli; conditions: for Bacterial growth of E. coli at 2MIC: highest concentration tested (2MIC), up to 48 h; for Lag phase (delay in bacterial growth), E. coli: lowest concentration evaluated (MIC/2)
Protocol: (§1) To further examine the inhibitory effect of the moderately active compounds 1a and 2a on the growth of the six bacterial strains tested, growth kinetic studies were performed. Thus, the six bacterial strains were exposed to three different concentrations of the test compounds using the MIC values (Table 4) as reference (2MIC, MIC, and MIC/2), while untreated cells were used as negative control. The bacterial growth was recorded by measuring the absorbance at several time points.
(§2) A stock solution of selected compounds 1a and 2a was prepared in DMSO, and different concentrations equivalent to 2MIC, MIC, and MIC/2 in TSB of each compound were dispensed into a 96-well plate with a final volume of 100 µL, while only TSB was added for the control wells. Then, 100 µL of a diluted suspension of bacterial cells in TSB with an optical density of 0.125 measured at 600 nm (inoculum of approximately 10^5 CFU/mL) was added to each well, and the incubation was monitored by spectrophotometric measurements. The absorbance was recorded at 600 nm against time (h) at predetermined periods on a microplate reader. The experiments were performed in triplicate.

C. freundii = assay: Growth curve study, C. freundii; assay type: cell-based, Citrobacter freundii; conditions: for Bacterial growth of C. freundii at 2MIC: highest concentration tested (2MIC), up to 48 h
Protocol: as §1, §2

K. pneumoniae = assay: Growth curve study, K. pneumoniae; assay type: cell-based, Klebsiella pneumoniae; conditions: for Bacterial growth of K. pneumoniae at 2MIC: highest concentration tested (2MIC), up to 48 h
Protocol: as §1, §2

S. epidermidis = assay: Growth curve study, S. epidermidis; assay type: cell-based, Staphylococcus epidermidis; conditions: for Bacterial growth of S. epidermidis at sub-MIC concentration: 6.25 µg/mL; for Bacterial growth of S. epidermidis at 2MIC: highest concentration tested (2MIC), up to 48 h
Protocol: as §1, §2

S. aureus = assay: Growth curve study, S. aureus; assay type: cell-based, Staphylococcus aureus; conditions: for Bacterial growth of S. aureus at 2MIC: highest concentration tested (2MIC), up to 48 h
Protocol: as §1, §2

S. faecalis = assay: Growth curve study, S. faecalis; assay type: cell-based, Streptococcus faecalis; conditions: for Bacterial growth of S. faecalis at 2MIC: highest concentration tested (2MIC), up to 48 h
Protocol: as §1, §2

[1] = DPPH radical scavenging assay; conditions: 0.06 mg/mL, after two hours
Protocol: Oxidative stress has been associated with a wide range of pathologies. […] Measurements were performed at 2 concentrations and recorded at eight different time points. Ascorbic acid (Asc) and Trolox were used as positive controls. The results are presented as the percentage of DPPH radical scavenging activity and are outlined in Figure 2.
The antioxidant activity of the selenocompounds was determined by the DPPH assay following a procedure previously published by our group. Briefly, the compounds were dissolved in absolute methanol at a concentration of 1 mg/mL, and a dilution was prepared. Asc and Trolox were used as positive controls. A methanolic solution (100 µM) of DPPH˙ was made daily and […]. The stability of the radical through the time of analysis was checked by absorbance measurements of this solution. A volume of 100 µL of DPPH in methanol was added to 100 µL of the compounds’ solutions to a final concentration of 0.03 or 0.06 mg/mL, and the decolorization of the purple radical to the yellowish reduced form was followed by recording the absorbance at 517 nm. Determinations were recorded at eight different time intervals from 0 to 120 min on a BioTeck PowerWave XS spectrophotometer and the data were collected using KCJunior software. All the measurements were carried out in triplicate. […]

[2] = lowest concentration tested, 12.5 µg/mL

Row | Compound | melting point | Bacterial growth of E. coli at 2MIC (E. coli) | Lag phase (delay in bacterial growth), E. coli (E. coli) | Bacterial growth of C. freundii at 2MIC (C. freundii) | Bacterial growth of K. pneumoniae at the concentrations tested (K. pneumoniae; 2MIC, MIC and MIC/2) | Bacterial growth of K. pneumoniae at 2MIC (K. pneumoniae) | Bacterial growth of S. epidermidis at sub-MIC concentration (S. epidermidis) | Bacterial growth of S. epidermidis at 2MIC (S. epidermidis) | Bacterial growth of S. aureus at 2MIC (S. aureus) | Bacterial growth of S. faecalis at 2MIC (S. faecalis) | DPPH radical scavenging activity [1] | Log phase, C. freundii (C. freundii; lowest concentration (50 µg/mL)) | Log phase before bacterial growth, K. pneumoniae (K. pneumoniae; 25 µg/mL) | Log phase before bacterial growth, K. pneumoniae (K. pneumoniae; 50 µg/mL) | Delay in the bacterial growth, S. aureus (S. aureus; MIC concentration (25 µg/mL)) | Bacterial growth of S. aureus at MIC/2 (S. aureus; [2]) | Bacterial growth of S. faecalis at MIC/2 (S. faecalis; [2])
1 | N#C[Se]C/C=C/c1ccccc1 [Compound 1a, (E)-(3-selenocyanatoprop-1-en-1-yl)benzene] | 87 to 89 °C | no bacterial growth was detected | 41 h | no bacterial growth was detected | no growth was detected | no bacterial growth was detected | a delay could be observed | no bacterial growth was detected | no bacterial growth was detected | no bacterial growth was detected | – | – | – | – | – | – | –
2 | O=C(CC[Se]CC=Cc1ccccc1)[c-]1cccc1.[Fe+2].c1cc[cH-]c1 [Compound 1c, 3-(Cinnamylselanyl)-1-ferrocenylpropan-1-one] | – | – | – | – | – | – | – | – | – | – | 72.6% | – | – | – | – | – | –
3 | N#C[Se]Cc1ccc2c(c1)OCO2 [Compound 2a, 5-(Selenocyanatomethyl)benzo[d][1,3]dioxole] | 71 to 73 °C | no bacterial growth was detected | 10 h | no bacterial growth was detected | – | no bacterial growth was detected | a delay could be observed | no bacterial growth was detected | no bacterial growth was detected | no bacterial growth was detected | – | 43 h | 28 h | 42 h | 44 h | exponential growth of bacteria was observed | exponential growth of bacteria was observed
4 | O=C(CC[Se]Cc1ccc2c(c1)OCO2)[c-]1cccc1.[Fe+2].c1cc[cH-]c1 [Compound 2c, 3-((Benzo[d][1,3]dioxol-5-ylmethyl)selanyl)-1-ferrocenylpropan-1-one] | – | – | – | – | – | – | – | – | – | – | 76.1% | – | – | – | – | – | –
